Source: ChEMBL document CHEMBL3045028, “Synthesis, AntiBacteriol, and Antifungal Activities of Some New Benzimidazoles” (1992)
Calls of active or inactive are those of the source. The rule behind the calls is not given here.

Assays:
Type in all cases: functional
[1] = system: Xanthomonas campestris pv. campestris; test: In vitro antibacterial activity against Xanthomonas campestris pv. campestris KF2 assessed as inhibition at 0.1 %
Alternaria alternata = test: In vivo antifungal activity against Alternaria tenuis; parameters: concentration or dose not given beside the values
Agrobacterium sp. = test: In vitro antibacterial activity against Agrobacterium radiobacter pv. tumefaciens assessed as inhibition at 0.1 %
[2] = system: Agrobacterium tumefaciens; test: In vivo antibacterial activity against Agrobacterium tumefaciens infected carrots assessed as effective at 0.01%
[3] = system: Xanthomonas euvesicatoria; test: In vitro antibacterial activity against Xanthomonas euvesicatoria P-2092 assessed as inhibition at 0.1 %
Botrytis cinerea = test: In vitro antifungal activity against Botryotinia fuckeliana assessed as inhibition at 0.1 %
Pseudomonas viridiflava = test: In vitro antibacterial activity against Pseudomonas viridiflava 8 assessed as inhibition at 0.1 %
[4] = system: Xanthomonas phaseoli pv. phaseoli; test: In vitro antibacterial activity against Xanthomonas campestris pv. phaseoli assessed as inhibition at 0.1 %
[5] = system: Pseudomonas savastanoi pv. glycinea; test: In vitro antibacterial activity against Pseudomonas syringae pv. glycinea S1 assessed as inhibition at 0.1 %
[6] = system: Pseudomonas savastanoi pv. phaseolicola; test: In vitro antibacterial activity against Pseudomonas syringae pv. phaseolicola E81 assessed as inhibition at 0.1 %

SMILES | diameter of the inhibition zone (DIZ) [1] [cm] | Efficacy (Alternaria alternata) [%] | diameter of the inhibition zone (DIZ) (Agrobacterium sp.) [cm] | Efficacy [2] [%] | diameter of the inhibition zone (DIZ) [3] [cm] | diameter of the inhibition zone (DIZ) (Botrytis cinerea) [cm] | diameter of the inhibition zone (DIZ) (Pseudomonas viridiflava) [cm] | diameter of the inhibition zone (DIZ) [4] [cm] | diameter of the inhibition zone (DIZ) [5] [cm] | inhibition [6] | inhibition (Botrytis cinerea) | inhibition (Pseudomonas viridiflava) | inhibition [4] | inhibition [1] | inhibition [3] | diameter of the inhibition zone (DIZ) [6] [cm]
CCCCn1c(N)nc2ccccc21 | 3 | 50 | 3 | 30 | 3 | 3 | – | – | – | – | – | – | – | – | – | –
Nc1nc2ccccc2n1Cc1cccc(Cl)c1 | 3 | 50 | – | – | 3 | – | 3 | 3 | 2 | inactive | inactive | – | – | – | – | –
Cc1cccc(Cn2c(N)nc3ccccc32)c1 | 3 | 100 | 2 | – | 3 | – | – | – | – | – | – | – | – | – | – | –
Cc1ccc(Cn2c(/N=C/c3ccc([N+](=O)[O-])o3)nc3ccccc32)cc1 | – | – | – | 70 | – | 1 | – | – | 1 | inactive | – | inactive | inactive | inactive | inactive | –
CCCCn1c(N)nc2cc(C)c(C)cc21 | 2 | 100 | 3 | – | 2 | – | – | – | – | – | – | – | – | – | – | –
Cc1cc2ncn(Cc3ccccc3Cl)c2cc1C | 1 | 50 | – | – | – | 1 | – | – | 1 | – | – | inactive | inactive | – | inactive | 1
Cc1cc2ncn(Cc3cccc(F)c3)c2cc1C | 3 | 50 | 3 | 70 | 3 | – | – | – | – | – | – | – | – | – | – | –
COc1cccc(Cn2c(N)nc3cc(C)c(C)cc32)c1 | – | 100 | – | – | – | – | – | – | – | – | – | – | – | – | – | –
COc1cccc(Cn2c(N)nc3ccccc32)c1 | 3 | 100 | 3 | – | 3 | – | – | – | – | – | – | – | – | – | – | –
Cc1cc2nc(/N=C/c3ccc([N+](=O)[O-])o3)n(Cc3ccc(Cl)cc3)c2cc1C | 1 | – | – | 70 | 1 | 3 | 1 | 3 | 2 | – | – | – | – | – | – | 2
